# Results taken from US20100311714A1, “1H-IMIDAZO[4,5-c]QUINOLINONE COMPOUNDS” (priority 2009, published 2010).
# Columns and labels:
# [1] = tested on: PKB Ser473 phosphorylation in Rat1-myr-HA-p110 delta cells; experiment: Reverse protein array, PKB Ser473 phosphorylation in Rat1-myr-HA-p110 delta cells; type: cell-based; conditions: Rattus norvegicus, 0.5 h, 30 minutes compound incubation, read-out: p-PKB/IC50_delta
# [2] = tested on: PKB Ser473 phosphorylation in Rat1-myr-HA-p110 alpha cells; experiment: Reverse protein array, PKB Ser473 phosphorylation in Rat1-myr-HA-p110 alpha cells; type: cell-based; conditions: Rattus norvegicus, 0.5 h, 30 minutes compound incubation, read-out: p-PKB/IC50_alpha
# [3] = High-throughput equilibrium solubility at pH 6.8; type: physicochemical; conditions: pH 6.8, aqueous buffer, thermodynamic from solid; read-out: HT-Eq Sol/pH 6.8
# How it was run: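 Following the procedure of Zhou et al. (2007), compound solubility was determined at pH 6.8.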
Compound,IC50 [1] [µM],IC50 [2] [µM],solubility thermodynamic [3] [µg/mL]
"Cc1nc(F)ccc1-n1c(=O)n(C)c2cnc3ccc(-c4cnc(N)c(CO)c4)cc3c21 [Example 7.17, 8-(6-Amino-5-hydroxymethyl-pyridin-3-yl)-1-(6-fluoro-2-methyl-pyridin-3-yl)-3-methyl-1,3-dihydro-imidazo[4,5-c]quinolin-2-one]",0.119,0.0311,> 430
"CCOc1ccc(-c2ccc3ncc4c(c3c2)n(-c2ccc(OCCOC)nc2C)c(=O)n4C)cn1 [Example 13.1, 8-(6-Ethoxy-pyridin-3-yl)-1-[6-(2-methoxy-ethoxy)-2-methyl-pyridin-3-yl]-3-methyl-1,3-dihydro-imidazo[4,5-c]quinolin-2-one]",0.113,0.017,3
"COc1ccc(-n2c(=O)n(C)c3cnc4ccc(-c5cnc(N(C)C)nc5)cc4c32)c(Cl)n1 [Example 18.3, 1-(2-Chloro-6-methoxy-pyridin-3-yl)-8-(2-dimethylamino-pyrimidin-5-yl)-3-methyl-1,3-dihydro-imidazo[4,5-c]quinolin-2-one]",0.0907,0.0071,37
"CCOc1ccc(-c2ccc3ncc4c(c3c2)n(-c2cccnc2C)c(=O)n4C)cn1 [Example 2.1, 8-(6-Ethoxy-pyridin-3-yl)-3-methyl-1-(2-methyl-pyridin-3-yl)-1,3-dihydro-imidazo[4,5-c]quinolin-2-one]",0.096,0.00631,3
"CCNc1cc(-c2ccc3ncc4c(c3c2)n(-c2ccc(OCCOC)nc2C)c(=O)n4C)cnc1C [Example 13.4, 8-(5-Ethylamino-6-methyl-pyridin-3-yl)-1-[6-(2-methoxy-ethoxy)-2-methyl-pyridin-3-yl]-3-methyl-1,3-dihydro-imidazo[4,5-c]quinolin-2-one]",< 0.00457,< 0.00457,7
"CNc1ccc(-c2ccc3ncc4c(c3c2)n(-c2cnc(F)cc2C)c(=O)n4C)cn1 [Example 16.4, 1-(6-Fluoro-4-methyl-pyridin-3-yl)-3-methyl-8-(6-methylamino-pyridin-3-yl)-1,3-dihydro-imidazo[4,5-c]quinolin-2-one]",0.408,0.0307,55
"CNc1ncc(-c2ccc3ncc4c(c3c2)n(-c2ccc(C)nc2C)c(=O)n4C)cn1 [Example 14.4, 1-(2,6-Dimethyl-pyridin-3-yl)-3-methyl-8-(2-methylamino-pyrimidin-5-yl)-1,3-dihydro-imidazo[4,5-c]quinolin-2-one]",0.0326,0.0162,8
"COCCOc1ccc(-n2c(=O)n(C)c3cnc4ccc(-c5cnc(N)c(C(F)(F)F)c5)cc4c32)c(C)n1 [Example 13.2, 8-(6-Amino-5-trifluoromethyl-pyridin-3-yl)-1-[6-(2-methoxy-ethoxy)-2-methyl-pyridin-3-yl]-3-methyl-1,3-dihydro-imidazo[4,5-c]quinolin-2-one]",0.0294,< 0.00457,27
"CNc1ncc(-c2ccc3ncc4c(c3c2)n(-c2cccnc2C)c(=O)n4C)cn1 [Example 2.2, 3-Methyl-8-(2-methylamino-pyrimidin-5-yl)-1-(2-methyl-pyridin-3-yl)-1,3-dihydro-imidazo[4,5-c]quinolin-2-one]",0.0205,0.0159,14
"CCNc1cc(-c2ccc3ncc4c(c3c2)n(-c2cnc(F)cc2C)c(=O)n4C)cnc1C [Example 16.2, 8-(5-Ethylamino-6-methyl-pyridin-3-yl)-1-(6-fluoro-4-methyl-pyridin-3-yl)-3-methyl-1,3-dihydro-imidazo[4,5-c]quinolin-2-one]",0.0633,0.0218,70
"CNc1ncc(-c2ccc3ncc4c(c3c2)n(-c2ccc(F)nc2C)c(=O)n4C)cc1F [Example 7.12, 8-(5-Fluoro-6-methylamino-pyridin-3-yl)-1-(6-fluoro-2-methyl-pyridin-3-yl)-3-methyl-1,3-dihydro-imidazo[4,5-c]quinolin-2-one]",0.0978,0.0064,3
"CNc1ccc(-c2ccc3ncc4c(c3c2)n(-c2ccc(OCCOC)nc2C)c(=O)n4C)cn1 [Example 13.3, 1-[6-(2-Methoxy-ethoxy)-2-methyl-pyridin-3-yl]-3-methyl-8-(6-methylamino-pyridin-3-yl)-1,3-dihydro-imidazo[4,5-c]quinolin-2-one]",0.0385,0.005,10
"COCCN(C)c1ccc(-n2c(=O)n(C)c3cnc4ccc(-c5cncc(N)c5)cc4c32)c(C)n1 [Example 15.8, 8-(5-Amino-pyridin-3-yl)-1-{6-[(2-methoxy-ethyl)-methyl-amino]-2-methyl-pyridin-3-yl}-3-methyl-1,3-dihydro-imidazo[4,5-c]quinolin-2-one]",0.0597,0.0051,56

# The next lines start with the values.
IC50 [1] [µM],IC50 [2] [µM],solubility thermodynamic [3] [µg/mL],Compound
0.412,0.0205,47,"COc1ccc(-n2c(=O)n(C)c3cnc4ccc(-c5ccc6nccn6c5)cc4c32)c(OC)n1 [Example 8.10, 1-(2,6-Dimethoxy-pyridin-3-yl)-8-imidazo[1,2-a]pyridin-6-yl-3-methyl-1,3-dihydro-imidazo[4,5-c]quinolin-2-one]"
0.0785,0.0303,187,"Cc1nc(F)ccc1-n1c(=O)n(C)c2cnc3ccc(-c4cncc(N)c4)cc3c21 [Example 7.16, 8-(5-Amino-pyridin-3-yl)-1-(6-fluoro-2-methyl-pyridin-3-yl)-3-methyl-1,3-dihydro-imidazo[4,5-c]quinolin-2-one]"
0.0443,0.0096,4,"COCCN(C)c1ccc(-n2c(=O)n(C)c3cnc4ccc(-c5cnc6c(ccn6C)c5)cc4c32)c(C)n1 [Example 15.7, 1-{6-[(2-Methoxy-ethyl)-methyl-amino]-2-methyl-pyridin-3-yl}-3-methyl-8-(1-methyl-1H-pyrrolo[2,3-b]pyridin-5-yl)-1,3-dihydro-imidazo[4,5-c]quinolin-2-one]"
0.0839,0.0576,3,"COc1ncccc1-n1c(=O)n(C)c2cnc3ccc(-c4cnc(N(C)C)nc4)cc3c21 [Example 1.9, 8-(2-Dimethylamino-pyrimidin-5-yl)-1-(2-methoxy-pyridin-3-yl)-3-methyl-1,3-dihydro-imidazo[4,5-c]quinolin-2-one]"
0.0344,0.009,12,"Cc1ccc(-n2c(=O)n(C)c3cnc4ccc(-c5cncc(NC(C)C)c5)cc4c32)c(C)n1 [Example 14.8, 1-(2,6-Dimethyl-pyridin-3-yl)-8-(5-isopropylamino-pyridin-3-yl)-3-methyl-1,3-dihydro-imidazo[4,5-c]quinolin-2-one]"
0.612,0.0976,4,"COc1ncccc1-n1c(=O)n(C)c2cnc3ccc(-c4ccc(F)nc4)cc3c21 [Example 1.8, 8-(6-Fluoro-pyridin-3-yl)-1-(2-methoxy-pyridin-3-yl)-3-methyl-1,3-dihydro-imidazo[4,5-c]quinolin-2-one]"
